The text below walks through data of US20240174622A1, “COMPOUND AND RADIOACTIVE LABELING COMPOUND” (NIHON MEDI-PHYSICS CO., LTD., priority 2021, published 2024).

For data set [1] the following is noted: compared with one hour after administration; EJNMMI Res 2012, J Nucl Med 2017; cited from earlier work.
Data set [2] concerns LNCaP tumor. Format: in vivo, mouse. To be noted: for time after administration at which a significant difference in tumor volume from the saline-administered group was observed: 3.7 MBq, tail vein. How it is done:
LNCaP tumor-implanted mice were administered saline solutions (100 μL) of [^90Y]Y-PSMA-DA1 (3.7 MBq) or [^90Y]Y-PSMA-DB (3.7 MBq) obtained by the method described above from the tail vein (n=7). As the control group, LNCaP tumor-implanted mice were administered 100 μL of saline from the tail vein (n=7). After administration of the ^90Y-labeling compound, the tumor volume and body weight were measured 3 times per week. The tumor volume was calculated based on the calculation formula “(tumor volume)=[(long side) x (short side) 2/2]”.

Data set [3] addresses human serum albumin (HSA) (Homo sapiens, UniProt P02768). Briefly: Evaluation of binding to albumin (HSA solution, PBS control). To be noted: left to stand in HSA solution (45 mg/mL). The method, boiled down: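 Albumin binding read as the split of radioactivity between eluate and retained column fraction after gamma counting. Samples in human albumin or PBS control were centrifuged 2 min at 1500×g, 4° C., through Sephadex G-100 or G-50 spin columns.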

Data set [4] deals with LNCaP tumor-transplanted mouse. Briefly: Internal radioactivity distribution using LNCaP tumor-transplanted mouse. Format: in vivo. A digest of the protocol: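 Biodistribution is given as percent injected dose per gram of tissue, measured in blood and organs harvested at time points from 1 h to 192 h. Radiotracers were given by tail-vein injection in saline at 185–259 kBq, n=2–3. Hosts were male CB17 SCID mice carrying LNCaP or PC-3 tumours implanted s.c. in Matrigel 40–60 days earlier.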

The test system of data set [5] is LNCaP tumor. Briefly: Evaluation of suppressing tumor growth by 225Ac-labeling compound. Format: in vivo, mouse. Conditions: 20 kBq, tail vein. The procedure: [^225Ac]Ac-PSMA-DA1 (20 kBq) or [^225Ac]Ac-PSMA-DB (20 kBq) obtained by the above method was dissolved in 5% ethanol-containing acetate buffer (158 mM, pH 6.5, 100 μL), and the solution was administered to LNCaP tumor-transplanted mice from the tail vein (n=6 or 5). As the control group, 100 μL of 5% ethanol-containing acetate buffer (158 mM, pH 6.5) was administered to LNCaP tumor-transplanted mice from the tail vein (n=4).
After administration of the ^225Ac-labeling compound, the tumor volume and body weight were measured 2 times per week. The tumor volumes on the day when administration of ^225Ac-labeling compound was started were 75.3±26.0, 80.6±20.8, and 91.1±15.9 mm^3 for the groups administered [^225Ac]Ac-PSMA-DA1, [^225Ac]Ac-PSMA-DB, and 5% ethanol-containing acetate buffer, respectively.

Sequence of human serum albumin (HSA) (P02768 25-609): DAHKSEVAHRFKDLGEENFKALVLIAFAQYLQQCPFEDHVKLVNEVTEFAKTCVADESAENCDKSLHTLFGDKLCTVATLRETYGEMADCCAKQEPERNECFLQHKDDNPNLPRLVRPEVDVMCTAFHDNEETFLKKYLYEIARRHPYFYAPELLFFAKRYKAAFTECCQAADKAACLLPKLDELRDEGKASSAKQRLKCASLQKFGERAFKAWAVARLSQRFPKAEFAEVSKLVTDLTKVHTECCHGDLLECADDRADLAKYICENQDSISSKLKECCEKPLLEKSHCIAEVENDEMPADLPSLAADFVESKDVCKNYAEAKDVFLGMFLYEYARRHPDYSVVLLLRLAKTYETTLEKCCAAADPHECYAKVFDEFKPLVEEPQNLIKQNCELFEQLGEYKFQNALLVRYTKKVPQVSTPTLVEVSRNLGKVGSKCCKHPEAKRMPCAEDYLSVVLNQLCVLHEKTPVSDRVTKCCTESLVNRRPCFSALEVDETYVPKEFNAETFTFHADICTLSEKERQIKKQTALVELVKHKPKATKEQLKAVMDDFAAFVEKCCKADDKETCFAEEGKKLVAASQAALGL

Consider `O=C([O-])CN(CCN(CC(=O)[O-])Cc1cc(CCC(=O)NCCCCCC(=O)NCCCC[C@H](NC(=O)N[C@@H](CCC(=O)O)C(=O)O)C(=O)O)ccc1[O-])Cc1cc(CCC(=O)O)ccc1[O-].[68Ga+3].[OH3+]` [[^68Ga]Ga-PSMA-11], for which, in data set [1], the “kidney accumulation of known radiolabeled compound” value is recorded as 139 % ID/g.
Consider `O=C([O-])CN1CCN(C(CCC(=O)NCCCC[C@H](NC(=O)N[C@@H](CCC(=O)O)C(=O)O)C(=O)O)C(=O)[O-])CCN(CC(=O)[O-])CCN(C(CCC(=O)N[C@@H](CCCCNC(=O)CCCc2ccc(I)cc2)C(=O)O)C(=O)[O-])CC1.[90Y+3]` (stereo partly shown) [[^90Y]Y-PSMA-DA1], for which, in the data set on LNCaP tumor [2], the “time after administration at which a significant difference in tumor volume from the saline-administered group was observed” value is on record as 9 days. For the same compound, in the data set with LNCaP tumor [2] (mouse, in vivo), the “body weight of the mice” value is given as “slightly reduced”.
Regarding `O=C([O-])CN1CCN(C(CCC(=O)NCCCC[C@H](NC(=O)N[C@@H](CCC(=O)O)C(=O)O)C(=O)O)C(=O)[O-])CCN(CC(=O)[O-])CCN(C(CCC(=O)Nc2ccccc2)C(=O)[O-])CC1.[90Y+3]` (stereo partly shown) [[^90Y]Y-PSMA-DB, reference compound], the “time after administration at which a significant difference in tumor volume from the saline-administered group was observed” value in the data set with LNCaP tumor [2] was 33 days.
With `O=C([O-])CN(Cc1cccc(C(=O)[O-])n1)C[C@H](Cc1ccc(NC(=O)[C@H](CCCCNC(=O)CCC(=O)NCCCC[C@H](NC(=O)N[C@@H](CCC(=O)O)C(=O)O)C(=O)O)NC(=O)COCCOCCOCC(=O)N[C@@H](CCCCNC(=O)CCCc2ccc(I)cc2)C(=O)O)cc1)N(CC(=O)[O-])Cc1cccc(C(=O)[O-])n1.[111In+3]` [[^111In]In-Octapa-3], the “radioactivity in the eluate (in words)” value in data set [3] is “significantly higher”. In data set [4] (1 h after administration), the Blood is reported as 27.2 ± 2.92 % ID/g, the Brain is given as 0.40 ± 0.05 % ID/g, the Heart is 6.53 ± 0.66 % ID/g and the Intestine was found to be 2.60 ± 0.48 % ID/g. Moreover, in data set [4] (1 h after administration), the Kidney stood at 57.1 ± 17.4 % ID/g, the “LNCaP Tumor” value was determined as 7.79 ± 1.11 % ID/g, the Liver is reported as 4.32 ± 0.40 % ID/g and the Lung came to 16.7 ± 1.41 % ID/g. Further, in data set [4] (1 h after administration), the Muscle is listed as 1.51 ± 0.23 % ID/g, the Pancreas is 2.59 ± 0.26 % ID/g, the Spleen amounted to 8.56 ± 0.95 % ID/g and the “Stomach (% ID)” value worked out at 0.49 ± 0.04 % ID. For the same compound, in data set [4] (4 h after administration), the Blood was found to be 19.3 ± 3.84 % ID/g, the Brain was 0.31 ± 0.07 % ID/g, the Heart came out at 5.98 ± 0.93 % ID/g and the Intestine came to 3.23 ± 0.18 % ID/g. For the same compound, in data set [4] (4 h after administration), the Kidney was determined as 100 ± 6.33 % ID/g, the “LNCaP Tumor” value is 11.3 ± 2.39 % ID/g, the Liver came to 3.36 ± 0.39 % ID/g and the Lung is 14.1 ± 2.06 % ID/g. Moreover, in data set [4] (4 h after administration), the Muscle is recorded as 1.26 ± 0.18 % ID/g, the Pancreas worked out at 2.17 ± 0.15 % ID/g, the Spleen is on record as 7.42 ± 0.88 % ID/g and the “Stomach (% ID)” value is 0.78 ± 0.28 % ID. Further, in data set [4] (24 h after administration), the Blood turned out to be 7.20 ± 0.50 % ID/g, the Brain is listed as 0.16 ± 0.01 % ID/g, the Heart amounted to 2.50 ± 0.17 % ID/g and the Intestine was found to be 1.23 ± 0.28 % ID/g. In data set [4] (24 h after administration), the Kidney stood at 26.4 ± 2.50 % ID/g, the “LNCaP Tumor” value was determined as 8.04 ± 0.38 % ID/g, the Liver was found to be 1.73 ± 0.09 % ID/g and the Lung is on record as 5.85 ± 0.39 % ID/g. In addition, in data set [4] (24 h after administration), the Muscle is 0.61 ± 0.04 % ID/g, the Pancreas is on record as 1.24 ± 0.16 % ID/g, the Spleen came out at 2.87 ± 0.40 % ID/g and the “Stomach (% ID)” value is 0.25 ± 0.08 % ID. Besides, in data set [4] (48 h after administration), the Blood came to 3.88 ± 1.13 % ID/g, the Brain was determined as 0.12 ± 0.02 % ID/g, the Heart is listed as 1.37 ± 0.18 % ID/g and the Intestine is on record as 0.62 ± 0.14 % ID/g. In data set [4] (48 h after administration), the Kidney is 17.3 ± 5.57 % ID/g, the “LNCaP Tumor” value is reported as 7.79 ± 2.72 % ID/g, the Liver is on record as 1.42 ± 0.08 % ID/g and the Lung came out at 3.18 ± 0.68 % ID/g. In data set [4] (48 h after administration), the Muscle turned out to be 0.26 ± 0.05 % ID/g, the Pancreas is recorded as 0.60 ± 0.13 % ID/g, the Spleen stood at 1.76 ± 0.39 % ID/g and the “Stomach (% ID)” value was 0.13 ± 0.04 % ID. In data set [4] (96 h after administration), the Blood was 0.63 ± 0.32 % ID/g, the Brain was 0.07 ± 0.02 % ID/g, the Heart came out at 0.43 ± 0.17 % ID/g and the Intestine is listed as 0.29 ± 0.09 % ID/g. In addition, in data set [4] (96 h after administration), the Kidney came to 4.33 ± 2.06 % ID/g, the “LNCaP Tumor” value is given as 4.17 ± 0.80 % ID/g, the Liver stood at 0.70 ± 0.25 % ID/g and the Lung worked out at 0.78 ± 0.29 % ID/g. Besides, in data set [4] (96 h after administration), the Muscle is reported as 0.08 ± 0.03 % ID/g, the Pancreas was 0.22 ± 0.06 % ID/g, the Spleen came out at 0.88 ± 0.32 % ID/g and the “Stomach (% ID)” value is 0.06 ± 0.03 % ID. In data set [4] (192 h after administration), the Blood came out at 0.03 ± 0.00 % ID/g, the Brain came out at 0.02 ± 0.01 % ID/g, the Heart was determined as 0.12 ± 0.02 % ID/g and the Intestine is reported as 0.05 ± 0.01 % ID/g. In data set [4] (192 h after administration), the Kidney stood at 0.27 ± 0.02 % ID/g, the “LNCaP Tumor” value is on record as 1.31 ± 0.49 % ID/g, the Liver was 0.35 ± 0.04 % ID/g and the Lung is recorded as 0.12 ± 0.04 % ID/g. Further, in data set [4] (192 h after administration), the Muscle was determined as 0.01 ± 0.02 % ID/g, the Pancreas stood at 0.07 ± 0.01 % ID/g, the Spleen was 0.31 ± 0.11 % ID/g and the “Stomach (% ID)” value turned out to be 0.01 ± 0.00 % ID.
With `O=C([O-])CN1CCN(C(CCC(=O)NCCCC[C@H](NC(=O)N[C@@H](CCC(=O)O)C(=O)O)C(=O)O)C(=O)[O-])CCN(CC(=O)[O-])CCN(C(CCC(=O)N[C@@H](CCCCNC(=O)CCCc2ccc(I)cc2)C(=O)O)C(=O)[O-])CC1.[225Ac+3]` (stereo partly shown) [[^225Ac]Ac-PSMA-DA1], in the data set on LNCaP tumor [5], the body weight reduction result is listed as “transient”, the “growth suppression continuously observed until” value is 6 weeks and the “tumor growth compared with the control group” value is “significantly suppressed”.
With `O=C([O-])CN1CCN(C(CCC(=O)NCCCC[C@H](NC(=O)N[C@@H](CCC(=O)O)C(=O)O)C(=O)O)C(=O)[O-])CCN(CC(=O)[O-])CCN(C(CCC(=O)Nc2ccccc2)C(=O)[O-])CC1.[225Ac+3]` (stereo partly shown) [[^225Ac]Ac-PSMA-DB, reference compound], in the data set on LNCaP tumor [5], the body weight reduction result was “no sign of recovery” and the “tumor growth compared with the control group” value is “significantly suppressed”.
